Patent US11912693B2, “Compounds for modulating S1P1 activity and methods of using the same” (TREVENA, INC., priority 2017, dated 2024)

Legend:
[1] = biological target: T1, human sphingosine-1-phosphate receptor 1 (S1P1) (Homo sapiens (Human), UniProt P21453); assay: Inhibition of cAMP production (HTRF cAMP HiRange), S1P1 CHO-K1 cells; format: cell-based; details: for hS1P1 cAMP pEC50: inhibition of cAMP production, S1P1 CHO-K1 cells; for Emax: CHO-K1, efficacy (SPAN) normalized to fingolimod, read-out: hS1P1 cAMP SPAN
Protocol: (§1) Stable clonal Chinese hamster ovary K1 (CHO-K1) cells co-expressing EA-β-arrestin2 and the human sphingosine-1-phosphate receptor 1 (NM_001400, S1P1) with a C-terminal Prolink™ tag were purchased from DiscoverX corporation (Cat #: 93-0207C2).
(§2) Cell lines were cultured in AssayComplete™ Media 6 (DiscoverX Corporation, Cat #: 920018GF2) at 37° C. and 5% CO2 in a humidified CO2 and temperature-controlled incubator. To begin assay plating, cells were washed with dulbecco's phosphate buffered saline (CellGro, Cat #: 21-031-CV) and lifted from the culturing flask by incubation (37° C., 5 min) with CellStripper (Cellgro, Cat #: 25-056-CI). […] Plated cells were incubated overnight at 37° C. and 5% CO2 in a humidified CO2 and temperature-controlled incubator. Detecting Inhibition of cAMP Production
Agonist-promoted G-protein responses were determined by measuring changes in intracellular cAMP using the HTRF® cAMP HiRange kit (CisBio, Cat #: 62AM6PEJ) based on time-resolved fluorescence resonance energy transfer (TR-FRET) technology. […] Following a 30-minute incubation at 37° C. and 5% CO2 in a humidified CO2 and temperature-controlled incubator, the components of the cAMP HiRange kit were added as per the manufacturer's instructions. After an hour incubation at room temperature, plates were analyzed by a BMG PheraStar microplate reader.
(§3) The tables below include the efficacy of the compound as compared to a positive control, referred to as “SPAN”. These values are normalized to fingolimod, a known agonist of the sphingosine-1-phosphate 1 receptor. The tables also include potency values (pEC50) for modulating discrete receptor-mediated activities (inhibition of cAMP production and […] recruitment).
Target sequence in this assay (P21453 whole entry, looked up): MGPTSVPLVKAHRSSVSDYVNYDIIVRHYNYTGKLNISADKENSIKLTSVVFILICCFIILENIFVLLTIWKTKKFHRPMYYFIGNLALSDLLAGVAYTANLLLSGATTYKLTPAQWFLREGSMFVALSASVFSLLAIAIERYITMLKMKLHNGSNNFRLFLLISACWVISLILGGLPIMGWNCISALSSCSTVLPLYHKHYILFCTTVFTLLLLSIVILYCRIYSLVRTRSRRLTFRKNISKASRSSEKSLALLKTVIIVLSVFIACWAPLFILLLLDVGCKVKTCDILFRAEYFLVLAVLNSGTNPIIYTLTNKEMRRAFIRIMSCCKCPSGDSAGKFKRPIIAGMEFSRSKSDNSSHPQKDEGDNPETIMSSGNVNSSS

[2] = biological target: T1, human sphingosine-1-phosphate receptor 1 (S1P1); assay: β-Arrestin2 recruitment assay (PathHunter), S1P1 CHO-K1 cells; format: cell-based; details: for hS1P1 B-arrestin2 pEC50: β-arrestin2 recruitment, S1P1 CHO-K1 cells; for Emax: CHO-K1, efficacy (SPAN) normalized to fingolimod, read-out: hS1P1 B-arrestin2 SPAN
Protocol: as §1, §2
Target sequence in this assay (P21453 whole entry, looked up): as above
Target sequence in this assay (P32121 whole entry partner, looked up): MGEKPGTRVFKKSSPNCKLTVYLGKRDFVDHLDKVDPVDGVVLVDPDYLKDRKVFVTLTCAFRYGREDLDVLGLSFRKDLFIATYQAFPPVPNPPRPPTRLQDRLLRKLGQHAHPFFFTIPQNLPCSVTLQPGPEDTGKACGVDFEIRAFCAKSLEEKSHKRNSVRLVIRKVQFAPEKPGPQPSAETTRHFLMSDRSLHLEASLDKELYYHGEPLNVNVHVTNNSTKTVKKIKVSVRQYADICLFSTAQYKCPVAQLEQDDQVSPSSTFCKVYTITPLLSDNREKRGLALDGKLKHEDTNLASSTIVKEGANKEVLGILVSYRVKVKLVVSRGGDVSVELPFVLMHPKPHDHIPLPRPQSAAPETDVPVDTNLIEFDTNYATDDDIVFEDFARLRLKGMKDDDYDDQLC
Agonist-promoted β-arrestin2 recruitment to the sphingosine-1-phosphate 1 receptor was determined using the β-arrestin PathHunter®) Detection kit (DiscoverX Corporation, Cat #: 93-0001). […] In cells that stably express these fusion proteins, stimulation with a cognate agonist results in the interaction of […] and the Prolink™-tagged GPCR. This allows the complementation of the two β-galactosidase fragments and results in the formation of a functional enzyme with β-galactosidase activity. […] Following a 60 minute incubation at 37° C. and 5% CO2 in a humidified CO2 and temperature-controlled incubator, the components of the β-arrestin PathHunter® Detection kit were added as per the manufacturer's instructions. After an hour incubation at room temperature, plates were analyzed by a BMG PheraStar microplate reader.
as §3

| SMILES | hS1P1 cAMP pEC50 [1] | hS1P1 B-arrestin2 pEC50 [2] | Emax [1] | Emax [2] |
| --- | --- | --- | --- | --- |
| Cc1ccc(-c2nc(-c3ccc4c(c3)nnn4C(C)C)no2)c(C)c1 [Compound 166, 5-(2,4-dimethylphenyl)-3-(1-isopropyl-1H-benzo[d][1,2,3]triazol-5-yl)-1,2,4-oxadiazole] | <6.5 | <5 |  |  |
| CCC1(CC)CC(=O)c2cc(-c3nc(-c4ccnc(C(F)(F)F)c4)no3)ccc2O1 [Compound 314, 2,2-diethyl-6-(3-(2-(trifluoromethyl)pyridin-4-yl)-1,2,4-oxadiazol-5-yl)chroman-4-one] | <6.5 | <5 | < 75% | < 75% |
| CC(C)(CO)n1nnc2cc(-c3noc(-c4ccncc4C(F)(F)F)n3)ccc21 [Compound 626, 2-methyl-2-(5-(5-(3-(trifluoromethyl)pyridin-4-yl)-1,2,4-oxadiazol-3-yl)-1H-benzo[d][1,2,3]triazol-1-yl)propan-1-ol] | <6.5 | <5 |  |  |
| CC(C)n1nnc2cc(-c3nc4c(o3)CCCc3ccccc3-4)ccc21 [Compound 434, 4-[1-(propan-2-yl)-1H-1,2,3-benzotriazol-5-yl]-5-oxa-3-azatricyclo[8.4.0.0^2,6]tetradeca-1(14),2(6),3,10,12-pentaene] | <6.5 | <5 | < 75% | > 75% |
| CC(C)(CO)Cn1nnc2cc(-c3noc(-c4cnccc4C(F)(F)F)n3)ccc21 [Compound 529, 2,2-dimethyl-3-(5-(5-(4-(trifluoromethyl)pyridin-3-yl)-1,2,4-oxadiazol-3-yl)-1H-benzo[d][1,2,3]triazol-1-yl)propan-1-ol] | <6.5 | >5 |  |  |
| CCC1(CC)CC(=O)c2cc(-c3nc(-c4ccc5[nH]c(=O)[nH]c5c4)no3)ccc2O1 [Compound 539, 5-(5-(2,2-diethyl-4-oxochroman-6-yl)-1,2,4-oxadiazol-3-yl)-1H-benzo[d]imidazol-2(3H)-one] | >6.5 | >5 |  |  |
| COc1ccc(-c2coc(-c3ccc4c(c3)nnn4C(C)C)n2)cc1 [Compound 250, 5-[4-(4-methoxyphenyl)-1,3-oxazol-2-yl]-1-(propan-2-yl)-1H-1,2,3-benzotriazole] | <6.5 | <5 | < 75% | < 75% |
| CC(C)Nc1ccc(-c2ncc(-c3ccc4[nH]c(=O)[nH]c4c3)cn2)cc1C#N [Compound 628, 2-(isopropylamino)-5-(5-(2-oxo-2,3-dihydro-1H-benzo[d]imidazol-5-yl)pyrimidin-2-yl)benzonitrile] | >6.5 | >5 |  |  |
| CCC1(CC)CC(=O)c2cc(-c3nc(-c4cncc(NS(C)(=O)=O)c4)no3)ccc2O1 [Compound 545, N-(5-(5-(2,2-diethyl-4-oxochroman-6-yl)-1,2,4-oxadiazol-3-yl)pyridin-3-yl)methanesulfonamide] | >6.5 | >5 | > 75% | > 75% |
| COc1ccc2nc(-c3ccc4c(c3)nnn4CC(C)C)oc2c1 [Compound 452, 2-(1-isobutyl-1H-benzo[d][1,2,3]triazol-5-yl)-6-methoxybenzo[d]oxazole] | <6.5 | >5 | > 75% | < 75% |
| Cc1ccccc1-c1noc(-c2ccc3c(c2)nnn3C2CCCC2)n1 [Compound 175, 1-cyclopentyl-5-[3-(2-methylphenyl)-1,2,4-oxadiazol-5-yl]-1H-1,2,3-benzotriazole] | >6.5 | >5 | > 75% | > 75% |
| CC(C)n1nnc2cc(-c3ncc(-c4ccccc4F)s3)ccc21 [Compound 63, 5-(2-fluorophenyl)-2-(1-isopropyl-1H-benzo[d][1,2,3]triazol-5-yl)thiazole] | >6.5 | <5 |  |  |
| CCC1(CC)CC(=O)c2cc(-c3nc(-c4cncc(O)c4)no3)ccc2O1 [Compound 310, 2,2-diethyl-6-[3-(5-hydroxy-3-pyridyl)-1,2,4-oxadiazol-5-yl]chroman-4-one] | >6.5 | >5 | > 75% | > 75% |
| CC(C)n1nnc2cc(-c3nc(-c4ccccc4Br)no3)cnc21 [Compound 413, 3-(2-bromophenyl)-5-[3-(propan-2-yl)-3H-[1,2,3]triazolo[4,5-b]pyridin-6-yl]-1,2,4-oxadiazole] | >6.5 | >5 |  |  |
| CC(C)Cn1nnc2cc(-c3nc4cccc(Br)c4o3)ccc21 [Compound 454, 7-bromo-2-(1-isobutyl-1H-benzo[d][1,2,3]triazol-5-yl)benzo[d]oxazole] | >6.5 | >5 |  |  |
| C=CCNc1ccc(-c2nc(-c3ccc4[nH]nnc4c3)no2)cc1C#N [Compound 145, 5-(3-(1H-benzo[d][1,2,3]triazol-5-yl)-1,2,4-oxadiazol-5-yl)-2-(allylamino)benzonitrile] | >6.5 | >5 |  |  |
| CCC1(CC)CC(=O)c2cc(-c3nc(-c4cncc(C(F)(F)F)c4)no3)ccc2O1 [Compound 557, 2,2-diethyl-6-(3-(5-(trifluoromethyl)pyridin-3-yl)-1,2,4-oxadiazol-5-yl)chroman-4-one] | <6.5 | >5 |  |  |
| Cc1ncccc1-c1nc(-c2ccc3c(c2)nnn3C(C)C)no1 [Compound 194, 3-(1-isopropyl-1H-benzo[d][1,2,3]triazol-5-yl)-5-(2-methylpyridin-3-yl)-1,2,4-oxadiazole] | <6.5 | <5 | < 75% | < 75% |
| Cc1ccsc1-c1noc(-c2ccc3c(c2)nnn3CC(C)C)n1 [Compound 75, 1-(2-methylpropyl)-5-[3-(3-methylthiophen-2-yl)-1,2,4-oxadiazol-5-yl]-1H-1,2,3-benzotriazole] | >6.5 | >5 | < 75% | > 75% |
| CC(C)n1nnc2cc(-c3nc(-c4ccccc4OC(F)(F)F)no3)ccc21 [Compound 132, 5-(1-isopropyl-1H-benzo[d][1,2,3]triazol-5-yl)-3-(2-(trifluoromethoxy)phenyl)-1,2,4-oxadiazole] | >6.5 | >5 | > 75% | > 75% |
| COc1cccc2nc(-c3ccc4c(c3)nnn4C(C)C)oc12 [Compound 515, 2-(1-isopropyl-1H-benzo[d][1,2,3]triazol-5-yl)-7-methoxybenzo[d]oxazole] | >6.5 | >5 | > 75% | > 75% |
| CCC1(CC)CC(=O)c2cc(-c3nnc(-c4ccc5c(c4)nnn5C(C)C)s3)ccc2O1 [Compound 67, 2,2-diethyl-6-(5-(1-isopropyl-1H-benzo[d][1,2,3]triazol-5-yl)-1,3,4-thiadiazol-2-yl)chroman-4-one] | <6.5 | >5 | > 75% | < 75% |
| CCC1(CC)CC(=O)c2cc(-c3nc(-c4ccc(O)nc4)no3)ccc2O1 [Compound 105, 2,2-diethyl-6-[3-(6-hydroxy-3-pyridyl)-1,2,4-oxadiazol-5-yl]chroman-4-one] | <6.5 | <5 | < 75% | < 75% |
